Measurements published in patent US11890382B2, “Edible plant-derived microvesicle compositions for diagnosis and treatment of disease” (University of Louisville Research Foundation, Inc., priority 2011, dated 2024).

Experiments:
A549 cells = test: Uptake of labeled EPNVs by A549 cells; type: cell-based, human; conditions: 37° C.; sodium azide 50 mM, 3 and 6 hour
Experimental: For uptake experiments, tumor cells were grown in 12-well plates with Eagle's minimal essential medium (EMEM) in the presence of 10% fetal bovine serum (FBS) for 24 h. […] After washing with cold PBS 5×, cells were trypsinized with 0.25% Trypsin-EDTA (Invitrogen, Carlsbad, CA) and washed an additional two time. Finally, the cells were resuspended in flow cytometry buffer and analyzed by flow cytometry (BD Accuri™ C6 Cytometer, New Jersey USA) and FlowJo Version 7.6 software (TreeStar Inc). The data presented were based on the mean fluorescence signal for 50,000 cells collected. All assays were performed in triplicate. […]
The cultured cells were then washed with PBS 3×. The percentages of PKH26^+ cells were quantified by FACS analysis (BD Accuri™ Flow Cytometer) and FlowJo Version 7.6 software (TreeStar Inc.).
After washing 3×, PKH26+ cells was analyzed using FACS.
After washing 3× with PBS (pH7.4), PKH26^+ cells were determined by FACS analysis as previously described. Cells exposed to the vehicle (PBS; pH 7.4), served as a control for intrinsic fluorescence, both in the presence and the absence of 50 mM sodium azide. The data were analyzed by FACS (BD Accuri™ Flow Cytometer) and FlowJo Version 7.6 software (TreeStar Inc). […]

[1] = test system: CT26, SW620 and 4T1 tumors; test: EPNV mediated targeting and therapy, statements for all three tumor models; conditions: mouse
Experimental: In the first set experiments, six-week-old female BALB/c-SCID mice (Jackson Lab) were injected subcutaneously with the human colon cancer SW620 cell line (5.0×10^6 cells/mouse in 50 μl of PBS). In the second set of experiments, six-week-old female BALB/c mice (Jackson Lab) were injected subcutaneously with murine colon cancer CT26 cell line (1.0×10^6 cells/mouse in 50 μl of PBS). In the third set of experiments, six-week-old female BALB/c mice (Jackson Lab) were injected at a mammary fat pad with the murine breast tumor 4T1cell line (1.0×10^6 cells/mouse in 50 μl of PBS). […] Growth of the tumors was measured.

LPS induced septic shock = test: LPS mouse septic shock model; type: in vivo, C57BL/6 mice; conditions: amount equal to that in GELP-Cur; PBS 9/10
Text: PBS and GELPs alone (equal to the amount in GELPs-Cur) were used as controls. Mouse mortality was monitored over a period of 4 days.
Using an identical treatment protocol as described above, GELP-Cur-treatment led to 100% protection of C57BL/6 mice (10 mice/group) against LPS induced sepsis in a murine model.

[2] = Liver enzymes (ALT, GST) after oral treatment; type: in vivo, mice; conditions: last day of treatment
Text: At least ten mice were included per group.
Arthritis was induced using a standard protocol.

[3] = test system: colitis-associated cancer (CAC); test: AOM/DSS colitis-associated colon cancer model; type: in vivo, mice; conditions: gavaged at 4 mg/kg every other day for 3 weeks
Experimental: Colitis-associated colorectal cancer (CAC) was induced as described below. Six to seven week old female mice were injected intraperitoneally (IP) with 12.5 mg/kg azoxymethane (AOM; Sigma-Aldrich Chemical Co, St. Louis, MO). Beginning on the same day, mice were provided […] dextran sulfate sodium (DSS; MP Biomedicals, Solon, OH, molecular weight 35,000-50,000 […]) water for 7 days followed by 14 days of untreated drinking water. Mice were subjected to two more DSS water—untreated drinking water cycles followed by untreated water for 28 days. […] At the termination of the study, mice were sacrificed by CO2 asphyxiation and all organs were carefully inspected for macroscopic pathological lesions. The intestines, liver, and spleen were removed, and fixed in 10% buffered formalin for a minimum of 24 h. The colon was excised, flushed with saline, the length measured, cut open longitudinally, flattened on filter paper and washed with saline. Macroscopic inspection of the colons was carefully carried out, with the number, size and location of visible tumors recorded.
Mice received a single injection of azoxymethane (AOM, 10 mg/kg body weight), followed by administration of three cycles of dextran sulfate sodium (DSS, 2% in water) as outlined in FIG. 4.

## COc1ccc2c(c1)c(CC(=O)O)c(C)n2C(=O)c1ccc(Cl)cc1 [indomethacin]
A549 cells
  effect of inhibitor on uptake of PKH26-EPNV by A549 cells: did not affect

## C=C1[C@@H](C)[C@H]2[C@H](Cc3ccccc3)NC(=O)[C@]23[C@H](OC(C)=O)/C=C/[C@@](C)(O)C(=O)[C@@H](C)C/C=C/[C@H]3[C@@H]1O [cytochalasin D]
A549 cells
  effect of inhibitor on uptake of PKH26-EPNV by A549 cells: greatly diminished

## CN(C)CCCN1c2ccccc2Sc2ccc(Cl)cc21 [chlorpromazine]
A549 cells
  effect of inhibitor on uptake of PKH26-EPNV by A549 cells: greatly diminished

## N=C(N)NC(=O)c1nc(Cl)c(N)nc1N [Amiloride]
A549 cells
  effect of inhibitor on uptake of PKH26-EPNV by A549 cells: did not affect

## COC(=O)Nc1nc2ccc(C(=O)c3cccs3)cc2[nH]1 [nocodazole]
A549 cells
  effect of inhibitor on uptake of PKH26-EPNV by A549 cells: greatly diminished

## CC(=O)O[C@H]1C(=O)[C@@]2(C)[C@H]([C@H](OC(=O)c3ccccc3)[C@]3(O)C[C@H](OC(=O)[C@H](O)[C@@H](NC(=O)c4ccccc4)c4ccccc4)C(C)=C1C3(C)C)[C@]1(OC(C)=O)CO[C@@H]1C[C@@H]2O [PTX, paclitaxel]
[1]
  in vivo biodistribution in sacrificed tumor bearing mice: mainly targeted liver and spleen

## COc1cc(/C=C/C(=O)CC(=O)/C=C/c2ccc(O)c(OC)c2)ccc1O [free curcumin, curcumin]
LPS induced septic shock
  mice died: 8/10
[2]; ALT (36±8.1 U/I)
  liver enzyme ALT versus PBS group: not significantly different
[2]; GST (25±5.2)
  liver enzyme GST versus PBS group: not significantly different
[3]
  average tumor number per mouse: 8.5

## CO/C1=C\C(C)=C\[C@@H](C)[C@@H](O)[C@@H](C)C/C(C)=C/C=C/[C@H](OC)[C@@H]([C@@H](C)[C@@H](O)[C@H](C)[C@@]2(O)C[C@@H](O)[C@H](C)[C@@H](C(C)C)O2)OC1=O [bafilomycin A1]
A549 cells
  effect of inhibitor on uptake of PKH26-EPNV by A549 cells: markedly inhibited
